The values below come from patent US20090222938A1, “Therapeutic Target Molecules For The Development of Novel Medicaments for Degenerative Diseases” (Neuroprofile GMBH, priority 2006, published 2009).

Holding throughout (format): cell-based
The subject of assay [1] is SCD-mRNA in NT2-N neurons. Nature of the assay: SCD mRNA quantitative real-time RT-PCR after stressor treatment. Conditions: 15 day treatment.
The next assay deals with NT2-N neuron cells. Nature of the assay: Live/Dead-Viability/Cytotoxicity Assay, survival of neurons under chronic sublethal oxidative stressor. The settings on record: stressor 1.0-25 μM, serum-free; more than 3 days after the time point of sampling. An excerpt: The increase of MAC30-mRNA in NT2-N neuron cells (Andrews P. W., Dev. Biol., 103, pp 285-293, 1984; Pleasure S. J., Page C., Lee V. M.-Y., J. Neurosci., 12, pp 1802-1815, 1992) has been detected in microarray analyses using fluorescence-labelled cDNA after treating the cells under serum-free conditions with chronic sublethal concentrations of the oxidative stressor haloperidol (Sigma; catalogue No. H-1512). Appropriate conditions for an optimal survival rate of the cells were obtained by means of the Live/Dead-Viability/Cytotoxicity Assay (Molecular Probes) according to the manual of the manufacturer. […] 2′,7′-dichlorodihydrofluorescein-diacetate (Sigma, catalogue No. D6883) was used for determining total cell quantity of ROS. […] Subsequently, the cells were homogenized by sonication, centrifugated (20 minutes, 4° C., 20.000×g), and the fluorescence of the supernatant was measured. […] The relative increase of ROS was calculated in relation to the control. Further, ROS was determined by means of dihydroethidium (DHE; Sigma catalogue No. D7008). 5 μM DHE was added into an aliquot of the scraped cells, incubated for 1 hour at 37° C., processed analogous to the DCFDA procedure, and the fluorescence of the supernatant was determined. The protein adjusted alteration of mitochondrial ROS was calculated in relation to the untreated control. […]

Assay [2] concerns NPC2-mRNA in NT2-N neurons. Kind of assay: NPC2 mRNA quantitative real-time RT-PCR after stressor treatment.
The test system of assay [3] is IDI1 protein in NT2-N neurons. Nature of the assay: IDI1 protein quantity by two dimensional polyacrylamid gel electrophoresis and mass spectrometric identification. Conditions: 15 day treatment.
Excerpt: The increase of the IDI1 protein (IDI1=Isopentenyl-diphosphate delta isomerase 1; =Isopentenyl diphosphate dimethylallyl diphosphate isomerase 1) was detected with a two dimensional polyacrylamid gel electrophoresis after treatment of NT2-N neurons with haloperidol (as described in example 1) and subsequent mass spectrometric identification of the protein spot.
The subject of assay [4] is MAC30-mRNA in NT2-N neuron cells. Kind of assay: MAC30 mRNA quantitative real-time RT-PCR (SYBR Green 1) after stressor treatment.
Excerpt: The MAC30-mRNA increase may be quantified by a quantitative real-time RT-PCR analysis (qRTRTPCR) with fluorescence labelling by SYBR Green 1.
For assay [5], the system named is BRI3-mRNA in NT2-N neurons. Kind of assay: BRI3 mRNA quantitative real-time RT-PCR after stressor treatment.
Excerpt: This increase may be quantified by means of a quantitative real-time RT-PCR analysis (qRTRTPCR) with fluorescence labelling by SYBR Green 1.
Assay [6] concerns G1P3-mRNA in NT2-N neurons. Kind of assay: G1P3 mRNA quantitative real-time RT-PCR after stressor treatment.
Excerpt: The increase was quantified by means of a quantitative real-time RT-PCR analysis (qRTRTPCR) with fluorescence labeling by SYBR Green 1. […] The PCR primer pair G1P3-For1 (5′-[sequence]-3′) (SEQ ID NO: 118) and GIP3-Rev2 (5′-[sequence]-3′) (SEQ ID NO: 119) is suitable for the analysis of the G1P3 mRNA by means of qRTRTPCR.
Assay [7] deals with LOC222171-mRNA in NT2-N neurons. Nature of the assay: LOC222171 mRNA quantitative real-time RT-PCR after stressor treatment. Conditions: 15 days of treatment.
Excerpt: This increase was quantified by means of a quantitative real time RT-PCR analysis (qRTRTPCR) featuring fluorescence labelling by SYBR-Green 1. […] The PCR primer pair LOC222171-For1 (5′-[sequence]-3′) (SEQ ID NO: 120) and LOC222171-Rev2 (5′-[sequence]-3′) (SEQ ID NO: 121) is suitable for the analysis of the LOC222171 mRNA by means of qRTRTPCR.
Assay [8] has as its system CUEDC1-mRNA in NT2-N neurons. Kind of assay: CUEDC1 mRNA quantitative real-time RT-PCR after stressor treatment. The settings on record: 15 days of chronic oxidative stress.
Excerpt: This increase was further quantified by means of a quantitative real time RT-PCR analysis (qRTRTPCR) with fluorescence labelling by SYBR-Green 1. […] The PCR primer pair CUEDC1-For1 (5′-[sequence]-3′) (SEQ ID NO: 122) and CUEDC1-Rev2 (5′-[sequence]-3′) (SEQ ID NO: 123) is suitable for the analysis of the CUEDC1 mRNA by means of qRTRTPCR.
Setting [9] is: longer treatment, 'may achieve up to ... or more'.

As for `O=C(CCCN1CCC(O)(c2ccc(Cl)cc2)CC1)c1ccc(F)cc1` [haloperidol], the “SCD-mRNA increase in comparison to untreated neurons” value in assay [1] is listed as no less than 50%. Further, the neurons alive result in the assay with NT2-N neuron cells was “More than 75%”. The NPC2-mRNA increase in assay [2] (15 days of chronic sublethal oxidative stress) is no less than 50%. Also, the “NPC2-mRNA increase in comparison to untreated neurons” value in assay [2] (after 3 days) is reported as “significant increase”. This compound returned an IDI1-protein quantity increase in [3] of no less than 30%. For the same compound, the MAC30-mRNA increase result in [4] (8-day treatment, 1.0-25 μM) was “at least 50%”; in assay [4] (setting [9]), no less than 200%. In addition, the BRI3-mRNA increase in assay [5] (8-day treatment) is no less than 40%; in assay [5] (3 days after treatment), “increase can be detected”; in [5] (setting [9]), no less than 200%. For the same compound, the G1P3-mRNA increase in assay [6] (8-day treatment) was no less than 50%; in assay [6] (after 3 days), “marked increase”; in assay [6] (setting [9]), no less than 400%. The same compound gave an LOC222171-mRNA increase in assay [7] of no less than 50%. Moreover, the CUEDC1-mRNA increase entry in assay [8] is “more than 30%”.
